Conditions: Liquid, Bellows volumetry

CC1CCCCC1 [methylcyclohexane]
mass density [kg/m3]
Conditions	410 K	450 K	500 K	550 K	600 K
10000 kPa	680.503	645.737	595.224	537.032	–
12000 kPa	–	–	–	–	485.331
20000 kPa	695.044	664.914	623.145	579.029	532.582
30000 kPa	707.272	680.595	643.213	605.816	567.711
40000 kPa	717.821	693.215	659.481	626.206	592.364
50000 kPa	727.698	704.34	672.946	642.447	611.576
60000 kPa	736.124	714.464	684.828	656.179	627.511
70000 kPa	743.853	723.281	695.54	668.08	641.114
80000 kPa	750.846	731.598	704.872	678.738	653.239
90000 kPa	757.777	739.304	713.602	688.637	664.012
100000 kPa	764.111	746.296	721.454	697.29	673.632
120000 kPa	776.018	759.037	735.845	713.086	690.895
140000 kPa	786.383	770.433	748.645	726.911	705.698
160000 kPa	795.899	780.708	759.878	739.33	718.93
180000 kPa	804.482	790.183	770.353	750.159	730.911
200000 kPa	812.647	798.897	779.786	760.464	741.384

Reference: the NIST ThermoML archive (doi:10.1007/s10765-017-2241-7)
